Measured values reported in US8354417B2, “Solid forms comprising 3-(2,5-dimethyl-4-oxo-4H-quinazolin-3-yl)-piperidine-2,6-dione, compositions comprising the same, and methods of using the same” (Celgene Corporation, priority 2007, dated 2013).
Values after ≈ are worked out from the molar mass of the structure shown. “Also recorded” adds a separate entry of the source. Blank lines part the entries; values can stand above or below the compound they belong to.

Columns and labels:
[1] = Approximate measured solubility in solvents at 25° C.; type: physicochemical; conditions: at least 24 hours; for solubility: 25 °C, thermodynamic from solid
Protocol: (§1) The solubility of Form A was investigated in a number of solvents at ambient conditions. Solubility measurements were obtained by adding solvent (either HPLC grade or reagent grade) to a carefully weighed (approximately 100 mg) sample of Form A. The resulting mixture was agitated for at least 24 hours at 25° C. The solubility was estimated based on the total volume of solvent required to give a complete solution. In addition, a known volume of filtrate was evaporated to dryness and the weight of the residue was measured.
as §1, with “B” for “A”, “B.” for “A.”

[2] = Moisture sorption/desorption by Dynamic Vapor Sorption (DVS); type: physicochemical; conditions: for Mass change relative to the dry mass: DVS, RH increased from 0% to 95% RH (25° C. per general method); for Weight at the end of the desorption cycle: RH decreased from 95% RH to 0% RH; for XRPD diffractogram after completion of the adsorption/desorption cycle: after full DVS cycle 0% - 95% - 0% RH; for Hygroscopicity: conclusion from moisture sorption test
Protocol: The moisture sorption/desorption behavior of Form A was investigated by Dynamic Vapor Sorption (DVS).
The moisture sorption/desorption behavior of Form B was investigated by Dynamic Vapor Sorption (DVS).
Hygroscopicity was determined using a Surface Measurement Systems DVS instrument. Typically, a sample size of 10-50 mg was loaded into the DVS instrument sample pan and the sample was analyzed on a DVS automated sorption analyzer at 25° C. The relative humidity (RH) was increased from 0% RH to 95% RH. The RH was then decreased in a similar manner to accomplish a full adsorption/desorption cycle.

[3] = Slurry equilibration in solvents at 25° C. or 50° C.; type: physicochemical; conditions: ethyl acetate, heptane, methyl t-butyl ether, toluene
Protocol: Form A was prepared via crystallization of 3-(2,5-dimethyl-4-oxo-4H-quinazolin-3-yl)-piperidine-2,6-dione in several organic solvent systems. Slurry crystallizations were performed by adding an excess of solid 3-(2,5-dimethyl-4-oxo-4H-quinazolin-3-yl)-piperidine-2,6-dione to 2 ml of the desired solvent system, then agitating the resulting mixture for a minimum of 24 hours at a controlled temperature. Upon reaching equilibrium, the solids were filtered, air-dried and characterized. Form A was prepared by slurry crystallization of Form B in each of the following solvents at 25° C.: acetone; acetonitrile; n-butanol; ethanol; methanol; methyl ethyl ketone; 2-propanol; and tetrahydrofuran.
Form B was prepared via crystallization of 3-(2,5-dimethyl-4-oxo-4H-quinazolin-3-yl)-piperidine-2,6-dione in several organic and aqueous solvent systems, including dimethylsulfoxide/water. Slurry crystallizations were performed by adding an excess of solid 3-(2,5-dimethyl-4-oxo-4H-quinazolin-3-yl)-piperidine-2,6-dione to 2 ml of the desired solvent system, then agitating the resulting mixture for a minimum of 24 hours at a controlled temperature. Upon reaching equilibrium, the solids were filtered, air-dried and characterized. Form B was prepared by slurry crystallization of Form A in the following solvents at both 25° C. and 50° C.: water; and ethanol/water (1/1).

[4] = Moisture sorption/desorption by Dynamic Vapor Sorption (DVS); type: physicochemical; conditions: isothermic approximately 23.3° C.; for Mass increase in moisture sorption test: approximately 0% RH to approximately 50% RH (FIG. 5 / FIG. 10); for Total mass increase in moisture sorption test: approximately 0% RH to approximately 95% RH (FIG. 5 / FIG. 10)
[5] = Compression testing, 2,000 psi for approximately 1 minute (XRPD); type: physicochemical; conditions: 2,000 psi pressure
Protocol: The stability of Form A was further investigated using compression testing. Compression testing of Form A was carried out by applying 2,000 psi pressure to a sample of Form A for approximately 1 minute, followed by analysis for stability using X-ray powder diffraction.
The stability of Form B was further investigated using compression testing. Compression testing of Form B was carried out by applying 2,000 psi pressure to a sample of Form B for approximately 1 minute, followed by analysis for stability using X-ray powder diffraction.
(§2) X-ray powder diffraction (XRPD) analysis was conducted using a Thermo ARL X'TRA X-ray powder diffractometer using CuKα radiation at 1.54 Å. The instrument was equipped with a fine focus X-ray tube. The voltage and amperage of the X-ray generator were set at 45 kV and 40 mA, and the measuring slits were set at 0.5 mm and 0.2 mm. Diffracted radiation was measured using a Peltier-cooled Si (Li) solid-state detector. A theta-two theta continuous scan at 2.40°/min (0.5 sec/0.02° step) from 1.5°2θ to 40°2θ was used. A sintered alumina standard was used as a reference.

[6] = Stability on exposure to 40° C./75% RH for four weeks (XRPD); type: physicochemical; conditions: 40° C./75% RH environment
Protocol: The stability of Form A was investigated by exposing a sample of Form A to a 40° C./75% RH environment for four weeks.
The stability of Form B was investigated by exposing a sample of Form B to a 40° C./75% RH environment for four weeks.
as §2

[7] = Stability of slurry in solvents at 40° C. for four weeks; type: physicochemical
Protocol: The stability of Form A was further investigated by storing a slurry of Form A in each of the following solvents at 40° C. for four weeks: acetone; acetonitrile; ethanol; heptane; 2-propanol; methyl t-butyl ether; methanol; water; and ethanol/water (1/1). The Form A material was stable in acetone; acetonitrile; ethanol; heptane; 2-propanol; methyl t-butyl ether; and methanol.
The stability of Form B was further investigated by storing a slurry of Form B in the following solvents at 40° C. for four weeks: acetone; acetonitrile; ethanol; heptane; 2-propanol; methyl t-butyl ether; methanol; water; and ethanol/water (1/1). The Form B material was stable in heptane; methyl t-butyl ether; water; and ethanol/water (1/1).

solubility ([1]; 2-propanol, organic solvent or mixture): 210 µg/mL (≈ 736 µM)
solubility ([1]; absolute ethanol, organic solvent or mixture): 500 µg/mL (≈ 1750 µM)
solubility ([1]; acetone, organic solvent or mixture): 2070 µg/mL (≈ 7260 µM)
solubility ([1]; acetonitrile, organic solvent or mixture): 1490 µg/mL (≈ 5220 µM)
solubility ([1]; ethanol/water (1/1), aqueous with cosolvent or surfactant or cyclodextrin): 180 µg/mL (≈ 631 µM)
solubility ([1]; ethyl acetate, organic solvent or mixture): 670 µg/mL (≈ 2350 µM)
solubility ([1]; heptane, organic solvent or mixture): 430 µg/mL (≈ 1510 µM)
solubility ([1]; methanol, organic solvent or mixture): 1280 µg/mL (≈ 4490 µM)
solubility ([1]; methyl ethyl ketone, organic solvent or mixture): 1390 µg/mL (≈ 4870 µM)
solubility ([1]; methyl t-butyl ether, organic solvent or mixture): 420 µg/mL (≈ 1470 µM)
solubility ([1]; methylene chloride, organic solvent or mixture): 2120 µg/mL (≈ 7430 µM)
solubility ([1]; n-butanol, organic solvent or mixture): 230 µg/mL (≈ 806 µM)
solubility ([1]; tetrahydrofuran, organic solvent or mixture): 4570 µg/mL (≈ 16000 µM)
solubility ([1]; toluene, organic solvent or mixture): 320 µg/mL (≈ 1120 µM)
solubility ([1]; water): 170 µg/mL (≈ 596 µM)
Mass change relative to the dry mass [2]: 0.7%
XRPD diffractogram after completion of the adsorption/desorption cycle [2]: substantially unchanged
Hygroscopicity [2]: substantially non-hygroscopic
Stability when slurried ([3]; 25° C., acetone, acetonitrile, n-butanol, ethanol, methanol, methylene chloride, methyl ethyl ketone, 2-propanol, tetrahydrofuran): stable
Stability when slurried ([3]; 50° C., acetone, acetonitrile, n-butanol, ethanol, methanol, methyl ethyl ketone, 2-propanol, tetrahydrofuran): stable
Mass increase in moisture sorption test [4]: approximately 1%
Total mass increase in moisture sorption test [4]: approximately 4%
melting point: 292 to 294 °C
Stability of slurry ([7]; acetone, acetonitrile, ethanol, heptane, 2-propanol, methyl t-butyl ether, methanol): stable
Stability of slurry ([7]; water and ethanol/water (1/1)): converted into the Form B crystal form
SMILES: Cc1cccc2nc(C)n(C3CCC(=O)NC3=O)c(=O)c12 (single isomer, unassigned) [Form A, 3-(2,5-dimethyl-4-oxo-4H-quinazolin-3-yl)-piperidine-2,6-dione]
Weight at the end of the desorption cycle [2]: lost all of the weight it had gained; also recorded: loses approximately all of the adsorbed moisture
Physical stability upon compression by X-ray powder diffraction [5]: substantially unchanged; also recorded: physically stable
Physical stability of the solid form by X-ray powder diffraction [6]: substantially unchanged; also recorded: physically stable

Approximate Solubility ([1]; 2-Propanol): 350 µg/mL
Approximate Solubility ([1]; Absolute ethanol): 500 µg/mL
Approximate Solubility ([1]; Acetone): 2560 µg/mL
Approximate Solubility ([1]; Acetonitrile): 1400 µg/mL
Approximate Solubility ([1]; Ethanol/Water (1/1)): 280 µg/mL
Approximate Solubility ([1]; Ethyl acetate): 1160 µg/mL
Approximate Solubility ([1]; Heptane): 440 µg/mL
Approximate Solubility ([1]; Methanol): 1310 µg/mL
Approximate Solubility ([1]; Methyl ethyl ketone): 1570 µg/mL
Approximate Solubility ([1]; Methyl t-butyl ether): 430 µg/mL
Approximate Solubility ([1]; Methylene chloride): 1630 µg/mL
Approximate Solubility ([1]; Tetrahydrofuran): 4710 µg/mL
Approximate Solubility ([1]; Toluene): 200 µg/mL
Approximate Solubility ([1]; Water): 100 µg/mL
Approximate Solubility ([1]; n-Butanol): 340 µg/mL
Mass change relative to the dry mass [2]: 2.9%
XRPD diffractogram after completion of the adsorption/desorption cycle [2]: substantially unchanged
Hygroscopicity [2]: substantially non-hygroscopic
Stability when slurried ([3]; 25° C., methylene chloride, water, ethanol/water (1/1)): stable
Mass increase in moisture sorption test [4]: approximately 1.5%
Total mass increase in moisture sorption test [4]: approximately 3%
Stability of slurry ([7]; 2-propanol): converted to a mixture of Forms A and B
Stability of slurry ([7]; acetone, acetonitrile, ethanol and methanol): converted into the Form A crystal form
Stability of slurry ([7]; heptane, methyl t-butyl ether, water, ethanol/water (1/1)): stable
SMILES: Cc1cccc2nc(C)n(C3CCC(=O)NC3=O)c(=O)c12 (single isomer, unassigned) [Form B, 3-(2,5-dimethyl-4-oxo-4H-quinazolin-3-yl)-piperidine-2,6-dione]
Weight at the end of the desorption cycle [2]: lost all of the weight it had gained; also recorded: loses approximately all of the adsorbed moisture
Physical stability upon compression by X-ray powder diffraction [5]: substantially unchanged; also recorded: physically stable
Physical stability of the solid form by X-ray powder diffraction [6]: substantially unchanged; also recorded: physically stable
